According to ChEMBL document CHEMBL1201862, “PubChem BioAssay data set” (2004):
Activity calls are given as the source filed them.

Experiments:
[1] = test system: Escherichia coli; assay: microbe, parasite or virus in culture
[2] = molecular target: T1, Heat shock factor protein 1 (Mus musculus, UniProt P38532); assay: decrease of HSF1-responsive luciferase luminescence – cell-based, NIH3T3, dose retest, confirmation (AID 2382); type: functional;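 note: NIH3T3 fibroblasts with HSF1-driven luciferase reporter stressed by proteasome inhibitor MG132; luminescence from HSF1-driven luciferase expression after 8 hours of MG132 stress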
T1 sequence (P38532 whole entry): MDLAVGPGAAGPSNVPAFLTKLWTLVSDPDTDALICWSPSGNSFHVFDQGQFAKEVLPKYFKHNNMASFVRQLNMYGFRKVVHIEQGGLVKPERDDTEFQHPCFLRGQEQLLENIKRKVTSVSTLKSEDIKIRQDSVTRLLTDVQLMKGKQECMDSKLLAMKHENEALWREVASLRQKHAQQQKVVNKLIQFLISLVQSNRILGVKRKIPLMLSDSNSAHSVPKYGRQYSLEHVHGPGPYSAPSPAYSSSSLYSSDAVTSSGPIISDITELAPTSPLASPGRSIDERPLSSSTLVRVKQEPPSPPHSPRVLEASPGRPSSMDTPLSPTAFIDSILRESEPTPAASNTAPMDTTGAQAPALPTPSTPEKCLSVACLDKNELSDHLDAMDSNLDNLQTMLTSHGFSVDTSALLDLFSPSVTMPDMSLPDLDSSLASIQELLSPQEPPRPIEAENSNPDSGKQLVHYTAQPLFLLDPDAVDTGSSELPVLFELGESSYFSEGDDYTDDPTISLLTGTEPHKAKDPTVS

[3] = test system: BJ; assay: cells; type: functional, cell-based; conditions: Homo sapiens
[4] = test system: BJ; assay: BJ-TERT-LT-ST fibroblast viability loss – cell-based, RAS-independent, luminescence, dose response (AID 1935); type: functional; conditions: Homo sapiens;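 note: BJ fibroblasts immortalized with TERT plus LT and ST oncogenes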
[5] = test system: BJ; assay: growth inhibition of engineered Ras-driven BJ cells – cell-based, alamar blue fluorescence, cherrypicked samples, dose response (AID 2631); type: functional; conditions: Homo sapiens;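 note: confirmatory dose-response assay in RAS-dependent BJ fibroblasts engineered with TERT, LT and ST, with cytotoxicity read by fluorescence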
[6] = DRD fibroblast viability loss – cell-based, non-viral oncogenic, luminescence, dose response (AID 1934); type: functional; conditions: Homo sapiens
[7] = test system: BJ; assay: BJ-TERT fibroblast viability loss – cell-based, RAS-independent, luminescence, dose response (AID 1933); type: functional; conditions: Homo sapiens
[8] = microbe, parasite or virus in culture; type: functional; conditions: Mycobacterium tuberculosis
[9] = viability loss of HMLE_sh_eGFP cells – cell-based, luminescence, counter-screen for HMLE_sh_ECad selective toxicity project, dose response (AID 463074); type: functional, Homo sapiens;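 note: HMLE human mammary epithelial cells expressing control shRNA against eGFP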
[10] = molecular target: Nonstructural protein 1 (Influenza A virus, UniProt Q194T2); type: functional, Influenza A virus (A/California/07/2009(H1N1))
[11] = Luminescence Cell-Based Dose Retest to Confirm Inhibitors of Cancer Stem Cells. [Related pubchem assays (depositor defined):AID2717, AID2721]; type: functional; conditions: Homo sapiens
[12] = molecular target: T2, Protein skinhead-1 (Caenorhabditis elegans, UniProt P34707); type: functional
T2 sequence (P34707 whole entry): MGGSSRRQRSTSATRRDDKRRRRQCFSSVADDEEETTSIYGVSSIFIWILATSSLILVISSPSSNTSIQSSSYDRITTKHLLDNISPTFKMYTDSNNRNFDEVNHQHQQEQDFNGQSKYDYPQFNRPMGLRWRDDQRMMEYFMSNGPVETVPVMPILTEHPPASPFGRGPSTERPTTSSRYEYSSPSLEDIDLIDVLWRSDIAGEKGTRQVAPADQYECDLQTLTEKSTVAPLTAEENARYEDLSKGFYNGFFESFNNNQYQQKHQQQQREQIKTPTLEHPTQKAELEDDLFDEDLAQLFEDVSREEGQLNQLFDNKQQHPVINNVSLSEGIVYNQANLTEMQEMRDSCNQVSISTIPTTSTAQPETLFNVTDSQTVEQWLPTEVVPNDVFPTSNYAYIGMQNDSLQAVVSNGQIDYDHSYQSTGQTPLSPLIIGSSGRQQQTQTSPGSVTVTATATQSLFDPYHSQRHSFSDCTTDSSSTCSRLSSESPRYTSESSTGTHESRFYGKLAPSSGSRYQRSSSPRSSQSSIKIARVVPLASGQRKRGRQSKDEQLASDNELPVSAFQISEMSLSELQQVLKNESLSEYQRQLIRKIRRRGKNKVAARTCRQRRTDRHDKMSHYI

[13] = molecular target: T3, Cytochrome P450 1A2 (Homo sapiens, UniProt P05177);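 note: PubChem cytochrome P450 panel assay, CYP1A2 panel member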
T3 sequence (P05177 whole entry): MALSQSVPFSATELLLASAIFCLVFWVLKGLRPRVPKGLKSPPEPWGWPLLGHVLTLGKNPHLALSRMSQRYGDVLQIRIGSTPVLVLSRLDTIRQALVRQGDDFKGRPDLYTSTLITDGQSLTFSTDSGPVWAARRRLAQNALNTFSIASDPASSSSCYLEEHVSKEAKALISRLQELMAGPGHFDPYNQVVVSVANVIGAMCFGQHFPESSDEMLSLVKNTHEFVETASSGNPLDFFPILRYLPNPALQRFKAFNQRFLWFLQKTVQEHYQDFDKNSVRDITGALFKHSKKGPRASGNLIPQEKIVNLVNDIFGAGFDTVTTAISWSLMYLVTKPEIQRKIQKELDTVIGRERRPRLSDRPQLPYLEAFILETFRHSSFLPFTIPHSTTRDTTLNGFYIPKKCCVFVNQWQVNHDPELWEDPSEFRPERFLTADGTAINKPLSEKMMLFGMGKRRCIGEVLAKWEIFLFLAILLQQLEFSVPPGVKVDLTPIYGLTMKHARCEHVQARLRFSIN

[14] = molecular target: T4, fMet-Leu-Phe receptor (Homo sapiens, UniProt P21462); assay: formyl peptide receptor binders – dose response (AID 519); type: functional
T4 sequence (P21462 whole entry): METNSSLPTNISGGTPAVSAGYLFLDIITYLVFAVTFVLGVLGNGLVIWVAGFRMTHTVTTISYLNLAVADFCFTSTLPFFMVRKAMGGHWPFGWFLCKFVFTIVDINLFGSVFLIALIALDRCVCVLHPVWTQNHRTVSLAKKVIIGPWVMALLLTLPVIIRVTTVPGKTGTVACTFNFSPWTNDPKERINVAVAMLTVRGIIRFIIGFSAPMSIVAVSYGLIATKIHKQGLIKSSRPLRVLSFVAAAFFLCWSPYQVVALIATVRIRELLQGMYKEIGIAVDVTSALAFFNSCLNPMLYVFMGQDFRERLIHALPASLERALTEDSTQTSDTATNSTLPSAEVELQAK

[15] = molecular target: Cytochrome P450 2D6 (Homo sapiens, UniProt P10635);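 note: CYP2D6 member of a cytochrome P450 panel assay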
[16] = molecular target: T1, Heat shock factor protein 1; assay: enhancement of HSF1-driven luciferase signal – cell-based, NIH3T3, luminescence, dose retest, confirmation (AID 435004); type: functional;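 note: stress induced by proteasome inhibitor MG132 added 30 min after compound; luciferase reporter driven by HSF1 response element in NIH3T3 cells; actives raise luminescence as potentiators of the MG132 stress response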
[17] = molecular target: Phospholipase D2 (Homo sapiens, UniProt O14939); assay: cellular phospholipase D2 inhibition IC50 – cell-based, dose response (AID 602147); type: functional;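 note: cellular assay in HEK293 cells overexpressing GFP-tagged PLD2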
[18] = molecular target: Phospholipase D1 (Homo sapiens, UniProt Q13393); assay: cellular phospholipase D1 inhibition IC50 – cell-based, dose response (AID 602151); type: functional;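 note: cellular PLD1 assay in Calu-1 cells stimulated with PMA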
[19] = Luminescence Cell-Based Dose Response HTS to Identify Inhibitors of 5'UTR Stem-Loop Driven Prion Protein mRNA Translation in H4 Neuroglioblastoma Cells. [Related pubchem assays: 1827 (Project Summary), 1813 (Primary HTS)]; type: functional
[20] = molecular target: CAAX prenyl protease 2 (Homo sapiens, UniProt Q9Y256); assay: inhibition of Ras-converting CAAX protease Rce1 – biochemical, yeast membranes, quenched-peptide fluorescence, cherry-pick, dose response (AID 588849)
[21] = luciferase reporter signal suppression in cells – H4 neuroglioma cells, luminescence, dose response (AID 1990); type: functional, cell-based
[22] = alpha-synuclein stem-loop luciferase translation blockers – H4 neuroglioma cells, luminescence, confirmation (AID 1988); type: functional, cell-based
[23] = molecular target: Latent membrane protein 1 (Human herpesvirus 4 (strain B95-8), UniProt P03230); assay: LMP1 TES1 pathway selectivity over dsRED control – imaging, HEK293T, dual-color eGFP/dsRED, cherry-picks, selectivity assay for LMP1 NF-kB inhibitor project, dose response (AID 588398); type: functional, cell-based
Latent membrane protein 1, sequence (P03230 whole entry): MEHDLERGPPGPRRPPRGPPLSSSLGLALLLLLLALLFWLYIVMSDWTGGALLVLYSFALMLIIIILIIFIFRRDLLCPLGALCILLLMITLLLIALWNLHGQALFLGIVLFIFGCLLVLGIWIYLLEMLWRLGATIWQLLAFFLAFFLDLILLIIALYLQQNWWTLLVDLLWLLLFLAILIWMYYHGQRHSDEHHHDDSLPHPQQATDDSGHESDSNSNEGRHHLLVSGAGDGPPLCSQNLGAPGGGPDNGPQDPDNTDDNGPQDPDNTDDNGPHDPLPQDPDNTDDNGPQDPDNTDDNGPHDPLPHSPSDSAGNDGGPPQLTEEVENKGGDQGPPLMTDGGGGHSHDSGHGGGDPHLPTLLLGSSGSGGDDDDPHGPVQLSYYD

Phospholipase D1, sequence (Q13393 whole entry): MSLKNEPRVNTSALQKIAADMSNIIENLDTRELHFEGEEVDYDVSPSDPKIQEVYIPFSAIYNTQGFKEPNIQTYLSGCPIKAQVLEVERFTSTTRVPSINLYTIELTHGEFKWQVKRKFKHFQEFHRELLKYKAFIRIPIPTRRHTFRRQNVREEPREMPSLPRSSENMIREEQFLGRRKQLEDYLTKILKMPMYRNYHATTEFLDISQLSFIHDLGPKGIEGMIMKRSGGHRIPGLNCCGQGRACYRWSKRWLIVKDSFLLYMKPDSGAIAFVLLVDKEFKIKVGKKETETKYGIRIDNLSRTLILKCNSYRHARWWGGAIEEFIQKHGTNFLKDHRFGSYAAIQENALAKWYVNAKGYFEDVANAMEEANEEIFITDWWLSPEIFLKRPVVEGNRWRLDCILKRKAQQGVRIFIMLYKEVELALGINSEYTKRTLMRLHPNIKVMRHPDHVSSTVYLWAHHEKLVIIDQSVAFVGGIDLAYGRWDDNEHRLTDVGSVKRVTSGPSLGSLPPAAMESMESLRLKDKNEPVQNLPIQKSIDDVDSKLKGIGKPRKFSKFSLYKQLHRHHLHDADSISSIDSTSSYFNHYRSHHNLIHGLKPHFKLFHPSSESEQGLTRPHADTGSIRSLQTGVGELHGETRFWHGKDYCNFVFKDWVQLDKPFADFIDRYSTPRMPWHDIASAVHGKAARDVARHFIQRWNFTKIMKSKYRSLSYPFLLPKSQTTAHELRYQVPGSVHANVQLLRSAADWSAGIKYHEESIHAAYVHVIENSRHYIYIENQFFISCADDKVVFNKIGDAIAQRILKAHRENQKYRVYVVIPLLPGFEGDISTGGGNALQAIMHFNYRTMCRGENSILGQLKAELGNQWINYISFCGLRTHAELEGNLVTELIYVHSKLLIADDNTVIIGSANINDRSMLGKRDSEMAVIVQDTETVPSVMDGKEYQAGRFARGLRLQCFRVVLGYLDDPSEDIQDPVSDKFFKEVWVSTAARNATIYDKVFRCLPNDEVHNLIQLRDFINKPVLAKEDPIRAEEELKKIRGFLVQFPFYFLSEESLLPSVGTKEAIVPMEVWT
Phospholipase D2, sequence (O14939 whole entry): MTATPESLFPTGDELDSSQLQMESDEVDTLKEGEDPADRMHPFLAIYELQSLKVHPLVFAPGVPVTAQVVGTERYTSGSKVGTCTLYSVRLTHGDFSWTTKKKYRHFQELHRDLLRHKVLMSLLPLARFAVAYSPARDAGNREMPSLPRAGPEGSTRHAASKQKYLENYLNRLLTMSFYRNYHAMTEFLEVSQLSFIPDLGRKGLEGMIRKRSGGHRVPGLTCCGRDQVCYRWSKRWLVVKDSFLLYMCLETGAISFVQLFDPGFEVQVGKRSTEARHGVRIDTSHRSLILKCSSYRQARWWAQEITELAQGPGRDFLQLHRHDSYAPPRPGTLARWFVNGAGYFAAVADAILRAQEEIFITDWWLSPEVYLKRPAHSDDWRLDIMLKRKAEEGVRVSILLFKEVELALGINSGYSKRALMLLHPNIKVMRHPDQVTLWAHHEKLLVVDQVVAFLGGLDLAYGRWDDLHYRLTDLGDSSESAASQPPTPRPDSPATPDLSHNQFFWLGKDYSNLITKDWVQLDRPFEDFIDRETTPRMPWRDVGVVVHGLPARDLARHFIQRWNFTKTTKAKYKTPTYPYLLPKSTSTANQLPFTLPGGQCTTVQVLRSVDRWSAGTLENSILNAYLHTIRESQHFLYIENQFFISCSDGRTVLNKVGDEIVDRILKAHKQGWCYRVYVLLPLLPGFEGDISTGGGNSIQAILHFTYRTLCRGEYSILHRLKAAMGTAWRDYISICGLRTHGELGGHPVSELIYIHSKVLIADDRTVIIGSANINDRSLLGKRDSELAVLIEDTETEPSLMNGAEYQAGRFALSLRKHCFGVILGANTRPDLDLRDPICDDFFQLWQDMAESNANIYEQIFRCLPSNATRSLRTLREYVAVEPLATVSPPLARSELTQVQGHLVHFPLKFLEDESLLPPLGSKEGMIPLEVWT
Nonstructural protein 1, sequence (Q194T2 whole entry): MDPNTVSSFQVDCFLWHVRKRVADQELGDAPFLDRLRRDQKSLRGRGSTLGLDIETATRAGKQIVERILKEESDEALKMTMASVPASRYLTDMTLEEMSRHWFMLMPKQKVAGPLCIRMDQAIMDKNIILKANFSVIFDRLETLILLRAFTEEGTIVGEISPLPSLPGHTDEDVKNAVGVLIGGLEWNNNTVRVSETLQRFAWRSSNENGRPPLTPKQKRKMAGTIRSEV
Cytochrome P450 2D6, sequence (P10635 whole entry): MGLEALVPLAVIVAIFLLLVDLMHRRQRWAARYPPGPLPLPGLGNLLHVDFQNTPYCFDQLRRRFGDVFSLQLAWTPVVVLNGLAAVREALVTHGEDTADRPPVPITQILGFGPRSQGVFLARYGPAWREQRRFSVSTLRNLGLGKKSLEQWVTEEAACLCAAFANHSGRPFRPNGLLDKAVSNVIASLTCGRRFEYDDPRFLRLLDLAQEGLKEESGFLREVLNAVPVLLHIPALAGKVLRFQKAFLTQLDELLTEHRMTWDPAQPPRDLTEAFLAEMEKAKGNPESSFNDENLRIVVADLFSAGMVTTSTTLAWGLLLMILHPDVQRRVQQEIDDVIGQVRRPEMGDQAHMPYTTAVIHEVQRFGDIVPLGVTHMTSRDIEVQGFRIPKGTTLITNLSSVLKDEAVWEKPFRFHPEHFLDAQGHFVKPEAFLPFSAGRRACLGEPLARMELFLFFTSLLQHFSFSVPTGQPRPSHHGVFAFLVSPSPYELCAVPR
CAAX prenyl protease 2, sequence (Q9Y256 whole entry): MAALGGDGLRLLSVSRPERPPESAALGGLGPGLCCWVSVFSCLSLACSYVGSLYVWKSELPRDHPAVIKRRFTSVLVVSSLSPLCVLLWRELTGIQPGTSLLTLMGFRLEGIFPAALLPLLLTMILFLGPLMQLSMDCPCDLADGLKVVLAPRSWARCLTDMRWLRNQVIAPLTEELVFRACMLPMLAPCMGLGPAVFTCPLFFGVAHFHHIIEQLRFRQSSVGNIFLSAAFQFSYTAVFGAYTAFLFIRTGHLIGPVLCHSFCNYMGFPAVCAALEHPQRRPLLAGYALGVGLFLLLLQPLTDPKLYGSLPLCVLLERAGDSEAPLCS

In the case of OCCN1CCN(C(S)=Nc2ccc(Oc3ccccc3)cc2)CC1, the AC50 [1] is reported as 82.3 µM (active).

In the case of CC(C)c1onc(C(=O)N2CCN(C(c3ccccc3)c3ccccc3)CC2)c1[N+](=O)[O-], the EC50 [2] is reported as 3.16 µM (active), the EC50 [3] is reported as 14.4 µM (inconclusive) and the EC50 [4] is reported as > 150 µM (not active). For the same compound, the EC50 [5] was 5.72 µM (active), the EC50 [6] was 2.69 µM (active) and the EC50 [7] was 0.621 µM (inconclusive).

For COc1ccc(/C=C2\CCC/C(=C\C=N\N(C)C)C2=O)cc1, the CC50 [8] was 9.83 µM (active), the AC50 [9] was 20.8 µM (active) and the IC50 [10] was 50.6 µM (active). The AC50 [11] was 25 µM (active).

With Cc1c(N=C2NC3(CCCCC3)Cc3ccccc32)c(=O)n(-c2ccccc2)n1C the AC50 [1] was > 150 µM (inactive).

With Cc1ccc(C)c(-n2c(CNC(=O)c3ccco3)nnc2SCC(=O)N2CCc3ccccc32)c1 the IC50 [12] was > 100 µM (inactive), the AC50 [13] was 2.51 µM (inconclusive) and the Ki [14] was > 66.7 µM (inactive). For the same compound, the AC50 [15] was “inconclusive”.

In the case of O=C1C2CC=CCC2C(=O)N1c1ccc(NCCc2ccccc2)c([N+](=O)[O-])c1 (centres undefined), the AC50 [9] is reported as 36.3 µM (active), the EC50 [16] is reported as 13.4 µM (active) and the AC50 [11] is reported as 0.209 µM (active).

With O=C(NCCN1CCC(n2c(=O)[nH]c3ccccc32)CC1)c1cc([N+](=O)[O-])cc([N+](=O)[O-])c1 the IC50 [17] was 1.32 µM (active) and the IC50 [18] was 0.27 µM (active).

With O=C(NCCN1CCC(n2c(=O)[nH]c3ccccc32)CC1)Nc1cccc(F)c1 the IC50 [17] was 2.3 µM (active) and the IC50 [18] was 0.078 µM (active).

For CN(C)CCCN(C(=O)c1cc(-c2cccs2)nc2ccccc12)c1nc2ccc(F)cc2s1, the EC50 [19] was 12.2 µM (active), the CC50 [8] was 25.1 µM (active) and the AC50 [20] was 29 µM (active). For the same compound, the EC50 [21] was > 60 µM (not active) and the EC50 [22] was 8.08 µM (active).

With O=[N+]([O-])c1ccc(CN2CC=C(c3ccccc3)CC2)cc1 the AC50 [23] was 178 µM (active).
